In patent publication US10660877B2 (BRISTOL-MYERS SQUIBB COMPANY, priority 2016, dated 2020):
Where two headings read alike, the source gives them in different places.

Tests used:
[1] = target: human TLR9 (Homo sapiens (Human), UniProt Q9NR96); experiment: TLR9 inhibition reporter assay (HEK-Blue cells, SEAP reporter, ODN2006 stimulation);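 further: compounds tested over 0.05 nM to 50 µM, 22 h incubation, inhibition taken as SEAP signal drop from agonist plus DMSO wells toward a known inhibitor control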
Chain of human TLR9 (Q9NR96 26-1032): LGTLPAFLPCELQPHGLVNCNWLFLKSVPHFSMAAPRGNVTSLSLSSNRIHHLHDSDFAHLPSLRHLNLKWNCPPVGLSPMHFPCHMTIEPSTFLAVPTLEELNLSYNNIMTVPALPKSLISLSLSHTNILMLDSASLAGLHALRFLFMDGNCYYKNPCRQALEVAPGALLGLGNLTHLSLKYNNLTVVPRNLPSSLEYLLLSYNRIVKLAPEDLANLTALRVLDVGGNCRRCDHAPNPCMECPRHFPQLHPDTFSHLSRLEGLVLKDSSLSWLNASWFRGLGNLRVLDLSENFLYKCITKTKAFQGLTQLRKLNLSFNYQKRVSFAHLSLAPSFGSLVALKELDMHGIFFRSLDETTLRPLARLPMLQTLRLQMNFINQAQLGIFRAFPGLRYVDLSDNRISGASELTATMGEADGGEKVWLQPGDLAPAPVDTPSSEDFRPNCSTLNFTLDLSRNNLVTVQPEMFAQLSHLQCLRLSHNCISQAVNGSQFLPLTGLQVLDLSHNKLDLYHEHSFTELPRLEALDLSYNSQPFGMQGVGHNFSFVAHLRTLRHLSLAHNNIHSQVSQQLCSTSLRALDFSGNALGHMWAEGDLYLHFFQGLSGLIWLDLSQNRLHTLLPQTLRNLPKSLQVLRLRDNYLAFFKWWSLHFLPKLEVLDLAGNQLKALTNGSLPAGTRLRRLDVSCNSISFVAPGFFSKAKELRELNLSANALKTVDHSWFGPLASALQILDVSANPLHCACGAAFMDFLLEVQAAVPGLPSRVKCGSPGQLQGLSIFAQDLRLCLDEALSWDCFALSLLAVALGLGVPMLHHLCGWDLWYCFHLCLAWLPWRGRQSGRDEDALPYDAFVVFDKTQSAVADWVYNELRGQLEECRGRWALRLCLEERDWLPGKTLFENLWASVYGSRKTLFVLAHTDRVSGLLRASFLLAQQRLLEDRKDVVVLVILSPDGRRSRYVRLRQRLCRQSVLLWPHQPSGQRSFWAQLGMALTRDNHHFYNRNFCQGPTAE

[2] = target: human TLR7 (Homo sapiens (Human), UniProt Q9NYK1); experiment: TLR7 inhibition reporter assay (HEK-Blue cells, SEAP reporter, gardiquimod stimulation); type: cell-based
Chain of human TLR7 (Q9NYK1 27-1049): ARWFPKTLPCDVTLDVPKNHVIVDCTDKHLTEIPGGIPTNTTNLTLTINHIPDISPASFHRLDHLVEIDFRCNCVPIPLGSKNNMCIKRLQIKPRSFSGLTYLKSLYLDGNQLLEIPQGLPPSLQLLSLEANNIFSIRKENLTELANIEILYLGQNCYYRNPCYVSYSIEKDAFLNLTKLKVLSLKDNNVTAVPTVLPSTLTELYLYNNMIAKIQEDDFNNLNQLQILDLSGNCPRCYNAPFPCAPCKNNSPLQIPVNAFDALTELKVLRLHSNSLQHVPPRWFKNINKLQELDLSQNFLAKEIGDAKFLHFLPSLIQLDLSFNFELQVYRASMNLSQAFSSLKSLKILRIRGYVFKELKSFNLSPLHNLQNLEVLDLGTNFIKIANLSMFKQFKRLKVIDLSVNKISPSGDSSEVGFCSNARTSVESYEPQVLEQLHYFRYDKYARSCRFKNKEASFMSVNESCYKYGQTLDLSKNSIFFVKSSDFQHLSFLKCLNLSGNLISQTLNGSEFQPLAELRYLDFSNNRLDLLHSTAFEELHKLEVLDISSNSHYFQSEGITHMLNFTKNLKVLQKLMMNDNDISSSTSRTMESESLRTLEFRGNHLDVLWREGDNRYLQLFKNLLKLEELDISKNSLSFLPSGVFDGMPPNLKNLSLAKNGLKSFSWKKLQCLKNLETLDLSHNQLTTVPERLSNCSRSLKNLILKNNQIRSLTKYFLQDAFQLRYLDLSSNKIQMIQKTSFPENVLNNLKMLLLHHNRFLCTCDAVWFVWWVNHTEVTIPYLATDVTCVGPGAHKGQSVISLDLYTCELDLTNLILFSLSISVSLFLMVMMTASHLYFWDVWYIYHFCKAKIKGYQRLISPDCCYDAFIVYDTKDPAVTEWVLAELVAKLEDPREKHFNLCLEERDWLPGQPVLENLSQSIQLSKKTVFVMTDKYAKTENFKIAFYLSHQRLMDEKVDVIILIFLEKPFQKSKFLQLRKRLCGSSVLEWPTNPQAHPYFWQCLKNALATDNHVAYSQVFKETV

[3] = read-out: TLR9 IC50, HEK-Blue cells overexpressing human TLR9, ODN2006 5 nM
[4] = HEK-Blue cells overexpressing human TLR7, gardiquimod 7.5 μM
[5] = read-out: TLR9 IC50, HEK-Blue cells, ODN2006 5 nM
[6] = HEK-Blue cells, gardiquimod 7.5 μM

SMILES	IC50 [1, 3] [µM]	IC50 [2, 4] [µM]	IC50 [1, 5] [µM]	IC50 [2, 6] [µM]
COc1cc(-c2[nH]c3ccc(C4CCNCC4)cc3c2C(C)C)cc(C)n1 [Example 46, 3-isopropyl-2-(2-methoxy-6-methylpyridin-4-yl)-5-(piperidin-4-yl)-1H-indole]	2.35	0.0015		
Cc1cc(-c2[nH]c3ccc(C4CCNCC4)c(F)c3c2C(C)C)cc(C)n1 [Example 77, 2-(2,6-dimethylpyridin-4-yl)-4-fluoro-3-isopropyl-5-(piperidin-4-yl)-1H-indole]	0.344	0.0005		
CC(C)c1c(-c2ccnc(C(F)(F)F)c2)[nH]c2ccc(C3CCNCC3)cc12 [Example 6, 3-isopropyl-5-(piperidin-4-yl)-2-(2-(trifluoromethyl)pyridin-4-yl)-1H-indole]	1.48	0.0282		
CCc1c(-c2ccnc(C)c2)[nH]c2ccc(C3CCNCC3)c(C)c12 [Example 82, 3-ethyl-4-methyl-2-(2-methylpyridin-4-yl)-5-(piperidin-4-yl)-1H-indole]		0.0073		
CC(C)c1c(-c2ccncc2CO)[nH]c2ccc(C3CCNCC3)cc12 [Example 19, (4-(3-isopropyl-5-(piperidin-4-yl)-1H-indol-2-yl)pyridin-3-yl)methanol]	1.86	0.124		
Cc1cc(-c2[nH]c3ccc(C4CCNCC4)cc3c2C(C)C)cc(C2CC2)n1 [Example 478, 2-(2-cyclopropyl-6-methylpyridin-4-yl)-3-isopropyl-5-(piperidin-4-yl)-1H-indole]	1.33	0.0102		
CCc1c(-c2ccnc(OC(F)F)c2)[nH]c2ccc(C3CCN(C4CCN(CC(C)C)CC4)CC3)cc12 [Example 774, 2-(2-(difluoromethoxy)pyridin-4-yl)-3-ethyl-5-(1′-isobutyl-[1,4′-bipiperidin]-4-yl)-1H-indole]	0.663	3.7		
CNCCN1CCC(c2ccc3[nH]c(-c4ccnc(F)c4)c(C)c3c2)CC1 [Example 750, 2-(4-(2-(2-fluoropyridin-4-yl)-3-methyl-1H-indol-5-yl)piperidin-1-yl)-N-methylethan-1-amine]	0.27	0.332		
Cc1cc(-c2[nH]c3cc(C)c(C4CCNCC4)cc3c2C(C)C)ccn1 [Example 75, 3-isopropyl-6-methyl-2-(2-methylpyridin-4-yl)-5-(piperidin-4-yl)-1H-indole]	0.18	0.005		
CCc1c(-c2ccnc(C)c2)[nH]c2ccc(C3CCNCC3)cc12 [Example 63, 3-ethyl-2-(2-methylpyridin-4-yl)-5-(piperidin-4-yl)-1H-indole]	0.329	0.0277		
CCc1c(-c2ccnc(OC(F)F)c2)[nH]c2ccc(C3CCN(C4CCN(CC(C)C)CC4)CC3)cc12 [Example 775, 2-(2-(difluoromethoxy)pyridin-4-yl)-3-ethyl-5-(1′-isobutyl-[1,4′-bipiperidin]-4-yl)-1H-indole]	0.379	5.66		
Cc1cc(-c2[nH]c3ccc(C4CCN(C(=O)c5ccncc5)CC4)cc3c2C(C)C)cc(C)n1 [Example 113]	15.7			
CCc1cc(-c2[nH]c3ccc(C4CCNCC4)cc3c2C(C)C)cc(C)n1 [Example 479, 2-(2-ethyl-6-methylpyridin-4-yl)-3-isopropyl-5-(piperidin-4-yl)-1H-indole]	3.4	0.0984		
CCc1c(-c2ccnc(NC)c2)[nH]c2ccc(C3CCN(C4CCN(CC(C)C)CC4)CC3)cc12 [Example 771, 4-(3-ethyl-5-(1′-isobutyl-[1,4′-bipiperidin]-4-yl)-1H-indol-2-yl)-N-methylpyridin-2-amine]	0.169	3.37		
CNCCN1CCC(c2ccc3[nH]c(-c4cc(OCCOC)ncc4F)c(C)c3c2)CC1 [Example 749, 2-(4-(2-(5-fluoro-2-(2-methoxyethoxy)pyridin-4-yl)-3-methyl-1H-indol-5-yl)piperidin-1-yl)-N-methylethan-1-amine]	0.64	4.83		
CCc1c(-c2ccnc(C)c2)[nH]c2cc(F)c(C3CCNCC3)c(F)c12 [Example 83, 3-ethyl-4,6-difluoro-2-(2-methylpyridin-4-yl)-5-(piperidin-4-yl)-1H-indole]		0.011		
Cc1cc(-c2[nH]c3cc(F)c(C4CCNCC4)cc3c2C(C)C)ccn1 [Example 73, 6-fluoro-3-isopropyl-2-(2-methylpyridin-4-yl)-5-(piperidin-4-yl)-1H-indole]	4.72	0.0044		
CCNc1cc(-c2[nH]c3ccc(C4CCN(C5CCN(CC(C)C)CC5)CC4)cc3c2CC)ccn1 [Example 772, N-ethyl-4-(3-ethyl-5-(1′-isobutyl-[1,4′-bipiperidin]-4-yl)-1H-indol-2-yl)pyridin-2-amine]	0.205	9.85		
COc1cc(-c2[nH]c3ccc(C4CCNCC4)cc3c2C(C)C)ccn1 [Example 485, 3-isopropyl-2-(2-methoxypyridin-4-yl)-5-(piperidin-4-yl)-1H-indole]	3.04	0.0118		
CNCCN1CCC(c2ccc3[nH]c(-c4ccnc(C(F)(F)F)c4)c(C)c3c2)CC1 [Example 747, N-methyl-2-(4-(3-methyl-2-(2-(trifluoromethyl)pyridin-4-yl)-1H-indol-5-yl)piperidin-1-yl)ethan-1-amine]	0.525	0.41		
CNCCN1CCC(c2ccc3[nH]c(-c4ccncc4)c(C)c3c2)CC1 [Example 776, N-methyl-2-(4-(3-methyl-2-(pyridin-4-yl)-1H-indol-5-yl)piperidin-1-yl)ethan-1-amine]		0.545		
Cc1nc(C)c(C)c(-c2[nH]c3ccc(C4CCNCC4)cc3c2C(C)C)c1C [Example 43, 3-isopropyl-5-(piperidin-4-yl)-2-(2,3,5,6-tetramethylpyridin-4-yl)-1H-indole]	0.546	0.278		
CC(C)c1c(-c2ccnc(C3CC3)c2)[nH]c2ccc(C3CCNCC3)cc12 [Example 483, 2-(2-cyclopropylpyridin-4-yl)-3-isopropyl-5-(piperidin-4-yl)-1H-indole]	1.44	0.0462		

Second part, the molecule after the results:

IC50 [1, 3] [µM]	IC50 [2, 4] [µM]	IC50 [1, 5] [µM]	IC50 [2, 6] [µM]	SMILES
0.611	0.356			CCc1c(-c2ccnc(OC)c2)[nH]c2ccc(C3CCN(C4CCN(C5CC5)CC4)CC3)cc12 [Example 788, 5-(1′-cyclopropyl-[1,4′-bipiperidin]-4-yl)-3-ethyl-2-(2-methoxypyridin-4-yl)-1H-indole]
0.685	0.094			CNCCN1CCC(c2ccc3[nH]c(-c4ccnc(OC)c4)c(CC4CC4)c3c2)CC1 [Example 784, 2-(4-(3-(cyclopropylmethyl)-2-(2-methoxypyridin-4-yl)-1H-indol-5-yl)piperidin-1-yl)-N-methylethan-1-amine]
0.365	1.21			CCc1c(-c2ccncc2)[nH]c2ccc(C3CCN(C4CCN(C)CC4)CC3)cc12 [Example 806, 3-ethyl-5-(1′-methyl-[1,4′-bipiperidin]-4-yl)-2-(pyridin-4-yl)-1H-indole]
	0.515			CNCCN1CCC(c2ccc3[nH]c(-c4ccnc(OC)c4)c(C)c3c2)CC1 [Example 777, 2-(4-(2-(2-methoxypyridin-4-yl)-3-methyl-1H-indol-5-yl)piperidin-1-yl)-N-methylethan-1-amine]
		0.306	0.884	CCc1c(-c2ccncc2)[nH]c2ccc(C3CCN(C4CCN(CC)CC4)CC3)cc12 [Example 809, 3-ethyl-5-(1′-ethyl-[1,4′-bipiperidin]-4-yl)-2-(pyridin-4-yl)-1H-indole]
1.01	0.0551			CNCCN1CCC(c2ccc3[nH]c(-c4ccnc(OC)c4)c(C(C)C)c3c2)CC1 [Example 783, 2-(4-(3-isopropyl-2-(2-methoxypyridin-4-yl)-1H-indol-5-yl)piperidin-1-yl)-N-methylethan-1-amine]
		4.44	0.689	CCN1CCC(N2CCC(c3ccc4[nH]c(-c5ccnc(OC)c5)c(C)c4c3)CC2)CC1 [Example 839, 5-(1′-ethyl-[1,4′-bipiperidin]-4-yl)-2-(2-methoxypyridin-4-yl)-3-methyl-1H-indole]
		0.613	0.581	COc1cc(-c2[nH]c3ccc(C4CCN(C5CCN(C)CC5)CC4)cc3c2C)ccn1 [Example 838, 2-(2-methoxypyridin-4-yl)-3-methyl-5-(1′-methyl-[1,4′-bipiperidin]-4-yl)-1H-indole]
		0.093	0.388	Cc1c(-c2ccncc2)[nH]c2ccc(C3CCN(C4CCN(C)CC4)CC3)cc12 [Example 842, 3-methyl-5-(1′-methyl-[1,4′-bipiperidin]-4-yl)-2-(pyridin-4-yl)-1H-indole]
		0.087	0.492	CCN1CCC(N2CCC(c3ccc4[nH]c(-c5ccncc5)c(C)c4c3)CC2)CC1 [Example 841, 5-(1′-ethyl-[1,4′-bipiperidin]-4-yl)-3-methyl-2-(pyridin-4-yl)-1H-indole]
1.21	0.61			CCc1c(-c2ccncc2)[nH]c2ccc(C3CCN(Cc4cccn4C)CC3)cc12 [Example 805, 3-ethyl-5-(1-((1-methyl-1H-pyrrol-2-yl)methyl)piperidin-4-yl)-2-(pyridin-4-yl)-1H-indole]
		0.61	0.679	CCc1c(-c2ccncc2)[nH]c2ccc(C3CCN(CCNC)CC3)cc12 [Example 808, 2-(4-(3-ethyl-2-(pyridin-4-yl)-1H-indol-5-yl)piperidin-1-yl)-N-methylethan-1-amine]
		0.379	0.466	COc1cc(-c2[nH]c3ccc(C4CCN(C5CCN(C(C)C)CC5)CC4)cc3c2C)ccn1 [Example 840, 5-(1′-isopropyl-[1,4′-bipiperidin]-4-yl)-2-(2-methoxypyridin-4-yl)-3-methyl-1H-indole]
0.48	0.459			CCc1c(-c2ccnc(OC)c2)[nH]c2ccc(C3CCN(C4CCNCC4)CC3)cc12 [Example 787, 5-([1,4′-bipiperidin]-4-yl)-3-ethyl-2-(2-methoxypyridin-4-yl)-1H-indole]
